{"source": "patent US6818644B1", "about": "“Substituted piperazine derivatives, the preparation thereof and their use as medicaments” (Boehringer Ingelheim Pharm GmbH & Co, KG, priority 1999, dated 2004)", "data": [{"units": {"melting point": "°C"}, "values": [{"smiles": "Cl.Nc1ccc(N2CCN(CCCCC3(C(=O)NCC(F)(F)F)c4ccccc4-c4ccccc43)CC2)cc1", "melting point": "> 270"}, {"smiles": "O=C(NCC(F)(F)F)C1(CCCCN2CCN(c3ccc(-c4ccccc4)cc3)CC2)c2ccccc2-c2ccccc21", "note": "[Example 3, 9-[4-(4-biphenyl-4-yl-piperazin-1-yl)-butyl]-9H-fluorene-9-carboxylic acid-(2,2,2-trifluoroethyl)-amide]", "melting point": "209 to 211"}, {"smiles": "O=C(NCC(F)(F)F)C1(CCCCN2CCN(c3ccc(Cl)cc3)CC2)c2ccccc2-c2ccccc21", "note": "[Example 4, 9-{4-[4-(4-Chloro-phenyl)-piperazin-1-yl]-butyl}-9H-fluorene-9-carboxylic acid-(2,2,2-trifluoroethyl)-amide]", "melting point": 166}, {"smiles": "O=C(NCC(F)(F)F)C1(CCCCN2CCN(c3cccc(Cl)c3)CC2)c2ccccc2-c2ccccc21", "note": "[Example 5, 9-{4-[4-(3-Chloro-phenyl)-piperazin-1-yl]-butyl}-9H-fluorene-9-carboxylic acid-(2,2,2-trifluoroethyl)-amide]", "melting point": 122}, {"smiles": "O=C(NCC(F)(F)F)C1(CCCCN2CCN(c3ccc(OCc4ccccc4)cc3)CC2)c2ccccc2-c2ccccc21", "note": "[Example 6, 9-{4-[4-(4-Benzyloxy-phenyl)-piperazin-1-yl]-butyl}-9H-fluorene-9-carboxylic acid-(2,2,2-trifluoroethyl)-amide]", "melting point": 180}, {"smiles": "O=C(NCC(F)(F)F)C1(CCCCN2CCN(c3ccc(C(F)(F)F)cc3)CC2)c2ccccc2-c2ccccc21", "note": "[Example 7, 9-{4-[4-(4-Trifluoromethyl-phenyl)-piperazin-1-yl]-butyl}-9H-fluorene-9-carboxylic acid-(2,2,2-trifluoroethyl)-amide]", "melting point": 176}, {"smiles": "O=C(NCC(F)(F)F)C1(CCCCN2CCN(c3ccc(F)cc3)CC2)c2ccccc2-c2ccccc21", "note": "[Example 9, 9-{4-[4-(4-Fluorophenyl)-piperazin-1-yl]-butyl}-9H-fluorene-9-carboxylic acid-(2,2,2-trifluoroethyl)-amide]", "melting point": "116 to 117"}, {"smiles": "O=C(NCC(F)(F)F)C1(CCCCN2CCN(c3ccc(Cl)c(C(F)(F)F)c3)CC2)c2ccccc2-c2ccccc21", "note": "[Example 10, 9-{4-[4-(4-Chloro-3-trifluoromethyl-phenyl)-piperazin-1-yl]-butyl}-9H-fluorene-9-carboxylic acid-(2,2,2-trifluoroethyl)-amide]", "melting point": 96}, {"smiles": "O=C(NCC(F)(F)F)C1(CCCCN2CCN(c3ccc(Cl)c(Cl)c3)CC2)c2ccccc2-c2ccccc21", "note": "[Example 12, 9-{4-[4-(3,4-dichlorophenyl)-piperazin-1-yl]-butyl}-9H-fluorene-9-carboxylic acid-(2,2,2-trifluoroethyl)-amide]", "melting point": 122}, {"smiles": "COc1ccc(N2CCN(CCCCC3(C(=O)NCC(F)(F)F)c4ccccc4-c4ccccc43)CC2)cc1", "note": "[Example 13, 9-{4-[4-(4-methoxy-phenyl)-piperazin-1-yl]-butyl}-9H-fluorene-9-carboxylic acid-(2,2,2-trifluoroethyl)-amide]", "melting point": 120}, {"smiles": "O=C(NCC(F)(F)F)C1(CCCCN2CCN(c3ccc([N+](=O)[O-])cc3)CC2)c2ccccc2-c2ccccc21", "note": "[Example 17, 9-{4-[4-(4-nitro-phenyl)-piperazin-1-yl]-butyl}-9H-fluorene-9-carboxylic acid-(2,2,2-trifluoroethyl)-amide]", "melting point": 146}, {"smiles": "O=C(NCC(F)(F)F)C1(CCCCN2CCN(c3ccccn3)CC2)c2ccccc2-c2ccccc21", "note": "[Example 20, 9-{4-[4-Pyridin-2-yl-piperazin-1-yl]-butyl}-9H-fluorene-9-carboxylic acid-(2,2,2-trifluoroethyl)-amide]", "melting point": 123}, {"smiles": "Cc1cccc(N2CCN(CCCCC3(C(=O)NCC(F)(F)F)c4ccccc4-c4ccccc43)CC2)n1", "note": "[Example 25, 9-{4-[4-(6-methyl-pyridin-2-yl)-piperazin-1-yl]-butyl}-9H-fluorene-9-carboxylic acid-(2,2,2-trifluoroethyl)-amide]", "melting point": "85 to 87"}, {"smiles": "Cc1cccc(N2CCN(CCCCC3(C(=O)NCc4ccc(F)cc4)c4ccccc4-c4ccccc43)CC2)n1", "note": "[Example 26, 9-{4-[4-(6-methyl-pyridin-2-yl)-piperazin-1-yl]-butyl}-9H-fluorene-9-carboxylic acid-4-fluorobenzyl-amide]", "melting point": "96 to 97"}, {"smiles": "O=C(NCC(F)(F)F)C1(CCCCN2CCN(c3ccc(C(F)(F)F)cn3)CC2)c2ccccc2-c2ccccc21", "note": "[Example 27, 9-{4-[4-(5-trifluoromethyl-pyridin-2-yl)-piperazin-1-yl]-butyl}-9H-fluorene-9-carboxylic acid-(2,2,2-trifluoroethyl)-amide]", "melting point": "147 to 149"}, {"smiles": "O=C(NCC(F)(F)F)C1(CCCCN2CCN(c3cccc(-c4ccccc4)n3)CC2)c2ccccc2-c2ccccc21", "note": "[Example 28, 9-{4-[4-(6-phenyl-pyridin-2-yl)-piperazin-1-yl]-butyl}-9H-fluorene-9-carboxylic acid-(2,2,2-trifluoroethyl)-amide]", "melting point": 63}, {"smiles": "O=C(NCC(F)(F)F)C1(CCCCN2CCN(c3cc(-c4ccccc4)ccn3)CC2)c2ccccc2-c2ccccc21", "note": "[Example 29, 9-{4-[4-(4-phenyl-pyridin-2-yl)-piperazin-1-yl]-butyl}-9H-fluorene-9-carboxylic acid-(2,2,2-trifluoroethyl)-amide]", "melting point": 59}, {"smiles": "COc1cccc(N2CCN(CCCCC3(C(=O)NCC(F)(F)F)c4ccccc4Oc4ccccc43)CC2)n1", "note": "[Example 35, 9-{4-[4-(6-methoxy-pyridin-2-yl)-piperazin-1-yl]-butyl}-9H-xanthene-9-carboxylic acid-(2,2,2-trifluoroethyl)-amide]", "melting point": 122}, {"smiles": "COc1cccc(N2CC(C)N(CCCCC3(C(=O)NCC(F)(F)F)c4ccccc4-c4ccccc43)C(C)C2)n1", "note": "(centres unmarked) [Example 36, 9-{4-[4-(6-methoxy-pyridin-2-yl)-2,6-dimethyl-piperazin-1-yl]-butyl}-9H-fluorene-9-carboxylic acid-(2,2,2-trifluoroethyl)-amide]", "melting point": 122}, {"smiles": "COc1cccc(N2CC(C)N(CCCCC3(C(=O)NCc4ccc(F)cc4)c4ccccc4-c4ccccc43)C(C)C2)n1", "note": "(centres unmarked) [Example 37, 9-{4-[4-(6-methoxy-pyridin-2-yl)-2,6-dimethyl-piperazin-1-yl]-butyl}-9H-fluorene-9-carboxylic acid-4-fluorobenzyl-amide]", "melting point": "78 to 79"}]}]}
